The values below come from ChEMBL document CHEMBL1201862, “PubChem BioAssay data set” (2004).

Some test systems named below: A498; COLO 205; EKVX; HCT-15; HT-29; Malme-3M; NCI-H522; OVCAR-4; OVCAR-8; SK-MEL-28; SK-OV-3; SN12C; SNB-75; U-251; LOX IMVI; RXF 393.
Common to all, as to test: NCI anticancer screen, dose series, 48 h

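Values below derive from 48-hour exposures of cells grown in 96-well plates, with endpoints linearly interpolated between the two concentrations bracketing the appropriate inhibition level. Here, GI50 denotes the concentration required for 50% inhibition of growth.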 The source made the active and inactive calls. Rule as the data show it: active = GI50 up to about 1.1 µM and inactive = higher.

Take `c1ccc2c(c1)CCCc1cc3ccccc3nc1-2`: the GI50 in the experiment on A498 was 79.4 µM (inactive); in the experiment with COLO 205, 29.9 µM (inactive); in the experiment on EKVX, > 100 µM (inactive); with HCT-15, above 100 µM; with HT-29, 46.3 µM (inactive); with Malme-3M it was > 100 µM (inactive). Besides, the GI50 is 82.4 µM (inactive) with NCI-H522; 68.1 µM (inactive) with OVCAR-4; > 100 µM (inactive) in the experiment on OVCAR-8; > 100 µM (inactive) in the experiment with SK-MEL-28; 38.7 µM (inactive) in the experiment on SK-OV-3; > 100 µM (inactive) in the experiment on SN12C. The GI50 was 75.3 µM (inactive) with SNB-75 and > 100 µM (inactive) in the experiment with U-251.
Regarding `CC(C)=CC1C[C@H](C2CC=C3C2(C)CCC2[C@@]3(C)C(=O)CC3[C@]2(C)C=CC(=O)[C@]3(C)CO)CO1` (stereo partly specified), the GI50 in the experiment on A498 was 8.81 µM (inactive); in the experiment with COLO 205, 14 µM (inactive); in the experiment on EKVX, 26.2 µM (inactive); in the experiment on HCT-15, 14.4 µM; in the experiment on HT-29, 4.15 µM (inactive); in the experiment on LOX IMVI, 3.76 µM (inactive). Also, the GI50 in the experiment with Malme-3M was 11.5 µM (inactive); with NCI-H522 it was 2.73 µM (inactive); with OVCAR-4, 10.7 µM (inactive); in the experiment with OVCAR-8 it was 4.55 µM (inactive); with RXF 393, 10.4 µM (inactive); in the experiment with SK-MEL-28 it was 5.2 µM (inactive). Moreover, the GI50 with SK-OV-3 is 16.6 µM (inactive); with SN12C, 20.3 µM (inactive); in the experiment on SNB-75, 8.04 µM (inactive); in the experiment with U-251, 8.83 µM (inactive).
Take `Cn1cnc2nc(Cl)nc(NC(C)(C)C(C)(C)O)c21`: the GI50 in the experiment with A498 is > 100 µM (inactive); with COLO 205, > 100 µM (inactive); in the experiment on EKVX, > 100 µM (inactive); in the experiment with HCT-15 it was above 100 µM; in the experiment with HT-29, > 100 µM (inactive); in the experiment on Malme-3M, > 100 µM (inactive). Also, the GI50 in the experiment with NCI-H522 was 72.4 µM (inactive); with OVCAR-4, > 100 µM (inactive); with OVCAR-8, > 100 µM (inactive); in the experiment on RXF 393, > 100 µM (inactive); in the experiment on SK-OV-3 it was > 100 µM (inactive); in the experiment on SN12C, > 100 µM (inactive). Besides, the GI50 with SNB-75 and in the experiment on U-251 was > 100 µM (inactive) throughout.
Turning to `COc1ccc(CN[C@H]2CCc3cc(OC)c(OC)c(OC)c3-c3ccc(SC)c(=O)cc32)c(OC)c1OC`, the GI50 is 0.0296 µM (active) in the experiment on A498; 0.0234 µM (active) in the experiment on COLO 205; 0.0237 µM (active) in the experiment with EKVX; 0.0266 µM in the experiment on HCT-15; 0.0205 µM (active) in the experiment with HT-29; 0.0352 µM (active) in the experiment with LOX IMVI. The GI50 with Malme-3M was 0.0484 µM (active); in the experiment on NCI-H522, 0.0216 µM (active); in the experiment with OVCAR-4, 0.0343 µM (active); with OVCAR-8 it was 0.0277 µM (active); in the experiment with RXF 393, 0.0181 µM (active); with SK-MEL-28, 0.0443 µM (active). The GI50 is 0.0293 µM (active) in the experiment on SK-OV-3, 0.0381 µM (active) in the experiment on SN12C, 0.0184 µM (active) with SNB-75 and 0.0194 µM (active) in the experiment with U-251.
In the case of `CCN(CC)CCN1CCc2c([nH]c3ccccc23)C1c1cccnc1` (stereo unspecified), the GI50 is > 100 µM (inactive) in the experiment on A498; > 100 µM (inactive) in the experiment on EKVX; above 100 µM in the experiment on HCT-15; > 100 µM (inactive) in the experiment on HT-29; > 100 µM (inactive) in the experiment on LOX IMVI; > 100 µM (inactive) in the experiment on NCI-H522. Besides, the GI50 is > 100 µM (inactive) in the experiment with OVCAR-4; > 100 µM (inactive) in the experiment on OVCAR-8; > 100 µM (inactive) in the experiment with SK-MEL-28; > 100 µM (inactive) in the experiment with SK-OV-3; > 100 µM (inactive) in the experiment with SN12C; 91.4 µM (inactive) with SNB-75. The GI50 in the experiment with U-251 is > 100 µM (inactive).
Regarding `O=c1c2cccc3cccc(c4oc5c6cccc7cccc(c(=O)c5c14)c76)c32`, the GI50 in the experiment with A498 is > 100 µM (inactive); with COLO 205 it was 10.9 µM (inactive); with EKVX, 12.2 µM (inactive); in the experiment with HCT-15 it was 11.4 µM; in the experiment on HT-29 it was 13.8 µM (inactive); with LOX IMVI, 12.2 µM (inactive). Also, the GI50 with Malme-3M was 12.5 µM (inactive); in the experiment on NCI-H522, 5.4 µM (inactive); in the experiment with OVCAR-8, 11.1 µM (inactive); with RXF 393, 11.2 µM (inactive); in the experiment on SK-MEL-28, 13.3 µM (inactive); in the experiment with SK-OV-3, 28.9 µM (inactive). Further, the GI50 with SN12C is 13.8 µM (inactive); with SNB-75, 14 µM (inactive); in the experiment on U-251, 12.7 µM (inactive).
In the case of `CCOC(=O)C(C(=O)OCC)=C1C=C(c2ccccc2)c2ccccc21`, the GI50 is 13.4 µM (inactive) with A498; 54.2 µM (inactive) in the experiment on COLO 205; > 100 µM (inactive) in the experiment on EKVX; 25.8 µM with HCT-15; 42.8 µM (inactive) in the experiment on HT-29; 28.8 µM (inactive) in the experiment with LOX IMVI. In addition, the GI50 is > 100 µM (inactive) with Malme-3M; 38.3 µM (inactive) in the experiment with OVCAR-4; > 100 µM (inactive) in the experiment on OVCAR-8; 40.2 µM (inactive) in the experiment on RXF 393; > 100 µM (inactive) with SK-MEL-28; > 100 µM (inactive) in the experiment with SK-OV-3. For the same compound, the GI50 in the experiment with SN12C is > 100 µM (inactive); in the experiment with SNB-75, 45.7 µM (inactive); in the experiment with U-251, 86.7 µM (inactive).
With `COc1cc2c(cc1OC)CC(=O)Nc1cc(OC)c(OC)cc1CC2`, the GI50 is 44.5 µM (inactive) with A498; 38.2 µM (inactive) in the experiment on COLO 205; > 100 µM (inactive) in the experiment with EKVX; 55 µM with HCT-15; 37 µM (inactive) in the experiment with HT-29; > 82.4 µM (inactive) with LOX IMVI. The GI50 in the experiment on Malme-3M is 20.8 µM (inactive); in the experiment with NCI-H522, 17.3 µM (inactive); with OVCAR-4, > 53.5 µM (inactive); in the experiment with OVCAR-8, 53.8 µM (inactive); in the experiment on SK-MEL-28, > 78.3 µM (inactive); in the experiment on SK-OV-3 it was 38.6 µM (inactive). Further, the GI50 in the experiment with SN12C is 45.9 µM (inactive); with SNB-75 it was > 59.2 µM (inactive); in the experiment with U-251, 54.7 µM (inactive).
In the case of `CC(=O)SC(SC(C)=O)SC(C)=O`, the GI50 is > 100 µM (inactive) in the experiment with A498; 27.3 µM (inactive) in the experiment with COLO 205; > 100 µM (inactive) in the experiment on EKVX; 53.2 µM in the experiment with HCT-15; 24.7 µM (inactive) with HT-29; 58.5 µM (inactive) with LOX IMVI. For the same compound, the GI50 in the experiment with Malme-3M was > 100 µM (inactive); in the experiment on NCI-H522 it was 20.7 µM (inactive); with OVCAR-4 it was > 100 µM (inactive); with OVCAR-8, > 100 µM (inactive); in the experiment on RXF 393 it was > 100 µM (inactive); in the experiment with SK-MEL-28, > 100 µM (inactive). Further, the GI50 is > 100 µM (inactive) in the experiment on SK-OV-3, > 100 µM (inactive) in the experiment with SN12C, 60.3 µM (inactive) with SNB-75 and > 100 µM (inactive) in the experiment with U-251.
Consider `O=C1Nc2ccccc2N/C1=C\C(=O)c1ccccc1O`, for which the GI50 in the experiment with A498 was > 100 µM (inactive); in the experiment with COLO 205, > 100 µM (inactive); with EKVX it was > 100 µM (inactive); in the experiment on HCT-15 it was above 100 µM; in the experiment with HT-29, > 100 µM (inactive); with LOX IMVI, > 100 µM (inactive). Besides, the GI50 in the experiment on Malme-3M, in the experiment with NCI-H522, with OVCAR-4, in the experiment on OVCAR-8, in the experiment on RXF 393 and with SK-MEL-28 was > 100 µM (inactive) each time. Further, the GI50 in the experiment on SK-OV-3, in the experiment on SN12C, in the experiment on SNB-75 and in the experiment on U-251 was > 100 µM (inactive) in each case.
For `O=C(NCCO)c1ccc([N+](=O)[O-])cc1`, the GI50 was > 100 µM (inactive) in the experiment on A498; > 100 µM (inactive) in the experiment with COLO 205; > 100 µM (inactive) with EKVX; above 100 µM in the experiment on HCT-15; > 100 µM (inactive) in the experiment on HT-29; > 100 µM (inactive) in the experiment with LOX IMVI. In addition, the GI50 with Malme-3M, in the experiment with NCI-H522, in the experiment with OVCAR-8, in the experiment with RXF 393, in the experiment on SK-MEL-28 and with SK-OV-3 was > 100 µM (inactive) each time. Also, the GI50 with SN12C, in the experiment on SNB-75 and in the experiment on U-251 was > 100 µM (inactive) in each case.
As to `C/C(CC(=O)Nc1ccc([N+](=O)[O-])cc1)=N\Nc1ccc([N+](=O)[O-])cc1[N+](=O)[O-]`, the GI50 in the experiment on A498 is 59.8 µM (inactive); with COLO 205 it was 89.7 µM (inactive); in the experiment with EKVX, > 100 µM (inactive); in the experiment on HCT-15 it was 7.66 µM; with HT-29 it was > 100 µM (inactive); in the experiment with LOX IMVI it was 10.7 µM (inactive). In addition, the GI50 was > 100 µM (inactive) in the experiment with Malme-3M; 25.9 µM (inactive) with NCI-H522; > 100 µM (inactive) with OVCAR-8; > 100 µM (inactive) with RXF 393; > 100 µM (inactive) in the experiment with SK-MEL-28; > 100 µM (inactive) in the experiment on SK-OV-3. Moreover, the GI50 in the experiment with SNB-75 and in the experiment on U-251 was > 100 µM (inactive) in each case.
For the compound `CCCCCCCCC(O)C#CC(N)=O` (stereo unspecified), the GI50 in the experiment on A498 was 16.4 µM (inactive); in the experiment with EKVX, 11.4 µM (inactive); in the experiment on HCT-15 it was 13.2 µM; in the experiment on HT-29, 12.1 µM (inactive); in the experiment on LOX IMVI, 11.7 µM (inactive); in the experiment with Malme-3M, 16.7 µM (inactive). For the same compound, the GI50 in the experiment with OVCAR-4 was 2.51 µM (inactive); with OVCAR-8, 9.42 µM (inactive); in the experiment with RXF 393 it was 13.7 µM (inactive); in the experiment on SK-MEL-28, 15.5 µM (inactive); with SN12C, 7.59 µM (inactive); in the experiment on SNB-75 it was 3.37 µM (inactive). Further, the GI50 in the experiment on U-251 was 8.34 µM (inactive).
As for `CC(=O)Nc1ccc(S(=O)(=O)N/N=C/CN2C(=O)c3ccccc3C2=O)cc1`, the GI50 with A498 was > 100 µM (inactive); in the experiment with COLO 205, > 100 µM (inactive); with EKVX, > 100 µM (inactive); in the experiment with HCT-15, above 100 µM; in the experiment with HT-29, > 100 µM (inactive); in the experiment with LOX IMVI, > 100 µM (inactive). For the same compound, the GI50 is > 100 µM (inactive) in the experiment with Malme-3M; > 100 µM (inactive) in the experiment with NCI-H522; > 100 µM (inactive) in the experiment with OVCAR-4; > 100 µM (inactive) in the experiment with OVCAR-8; 85.1 µM (inactive) in the experiment with RXF 393; > 100 µM (inactive) in the experiment with SN12C. The GI50 in the experiment with SNB-75 and in the experiment on U-251 was > 100 µM (inactive) throughout.
